# Reference: patent publication US12276654B2, “Chemical probe-dependent evaluation of protein activity and uses thereof” (The University of Chicago, priority 2017, dated 2025)
# Entries after “also recorded” stand apart in the source; their conditions may differ. Where two headings read alike, the source gives them in different places.
# Assays:
# NCEH1 [1] = target: T1, NCEH1 (Homo sapiens, UniProt Q6PIU2); experiment: ADPL imaging and quantification of endogenous NCEH1 activity in live cells (inhibitor profiling by ADPL); assay type: cell-based; set-up: endogenous NCEH1 activity in SKOV3 cells; endogenous in cells; host or cells: SKOV3; wild-type PC3; PAFAH2-expressing PC3; details: for IC50: inhibitor 4 hr before FP-Bio (2 μM, 40 min), read-out: apparent IC50, inhibition of NCEH1 by ADPL
# T1 sequence (Q6PIU2 1-408): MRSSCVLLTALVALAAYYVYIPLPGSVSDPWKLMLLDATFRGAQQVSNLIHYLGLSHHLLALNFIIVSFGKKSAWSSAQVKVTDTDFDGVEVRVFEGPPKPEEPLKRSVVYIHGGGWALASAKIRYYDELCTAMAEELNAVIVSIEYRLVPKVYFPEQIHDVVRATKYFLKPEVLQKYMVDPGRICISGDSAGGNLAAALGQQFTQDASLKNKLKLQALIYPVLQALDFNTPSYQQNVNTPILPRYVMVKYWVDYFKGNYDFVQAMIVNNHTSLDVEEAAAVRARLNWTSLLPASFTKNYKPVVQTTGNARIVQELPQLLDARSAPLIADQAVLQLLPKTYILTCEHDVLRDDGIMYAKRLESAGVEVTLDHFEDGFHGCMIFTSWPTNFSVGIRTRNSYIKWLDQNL
# Procedure: Cells were seeded in the 12-well chamber slide, typically at 10,000-30,000 cells per well (Ibidi, #81201). To get an even distribution of the cells, the chamber slide was pre-wetted with cell culture medium, drained off, and the chamber was left at room temperature for 5-10 min after seeding. Cells at 80-90% confluency were pulse treated with either FP-Bio (2 μM) in DMEM and incubated at 37° C. for 40 min or Capthepsin probe (5 μM) in complete medium and incubated at 37° C. for 3 hr. Cells were washed with PBS, fixed with 4% paraformaldehyde in PBS at room temperature for 15 minutes, washed twice with PBS for 5 minutes each at room temperature with orbital shaking and then permeabilized in 0.5% Triton X-100 in PBS at room temperature for 15 minutes. Finally, cells were washed twice with 0.05% Tween-20 in PBS for 5 minutes each at room temperature with orbital shaking.
# Prior to antibody incubation, the chamber was removed and the well boundaries delineated with the hydrophobic barrier pen (Vector laboratories, #H-4000). One-drop Duolink blocking buffer (Sigma, #DUO92004) was added and the slide was incubated at 37° C. for 30 minutes in a humidified chamber. The blocking solution was removed by tapping, followed by addition of 10 μg/ml of the anti-biotin (rabbit, Abcam, #G196266) and primary antibody for the protein of interest: anti-FLAG (mouse, 4 μg/ml of Sigma, #F1804-5 mg); anti-NCEH1 (mouse, 4 μg/ml of in-house polyclonal), anti-FAAH (mouse, 4 μg/ml of Abcam, #ab54615) for serine hydrolase members. […]
# For quantitative analysis single cell boundaries were identified manually using the DIC image. Then the “ROI Manager” tool in Image) was utilized to add all the cell outlines as a collection and overlay with the ADPL channel to measure per-cell fluorescence intensity. Typical quantitative comparisons were made using data from three or more independent fields of view per independent biological replicate condition. […]
# NCEH1 [2] = target: T1, NCEH1; experiment: α-Biotin Western blot gel-based profiling of NCEH1 activity (FP-Bio labeling) in SKOV3 cells; assay type: cell-based; set-up: endogenous NCEH1 activity in SKOV3 cells; endogenous in cells; host or cells: SKOV3; details: 1 μM, 4 hr pre-treatment, equivalent NCEH1 protein levels
# Procedure: Cells were grown in 6-well plates or 6-cm dishes until reaching 80-90% confluence. FP-biotin (FP-Bio, 10 mM stock in DMSO) was diluted to 2 μM in DMEM, and added to cells at 37° C. for 40 minutes. Cells were then washed in PBS, scraped and lysed by sonication using PBS buffer supplemented with protease inhibitor cocktail (Sigma, #92714-1BTL). Protein concentration was determined by BCA assay (Pierce, #23225), lysate was diluted in Laemmli buffer (4×: 200 mM Tris pH 6.8, 400 mM DTT, 8% SDS, 0.4% bromophenol, 40% glycerol), heated to 95° C. for 5 minutes, and resolved on a 4-12% PAGE gel (ThermoFisher, NP0322BOX). PAGE gels were processed for Western blot as indicated above with IR800-conjugated streptavidin (LI-COR, #926-32230) overnight at 4° C. Images were captured by Odyssey CLx imaging system (LI-COR). Quantification of band intensities was performed using ImageJ software (NIH).
structure (smiles),measurement,setting,value
CC(C)c1ccccc1OC(=O)NCCc1ccc2ccccc2c1 [JW480],IC50,NCEH1 [1]; PAFAH2 expressing PC3 cells,8 nM
same,NCEH1 activity by ADPL imaging and quantification relative to vehicle,"NCEH1 [1]; SKOV3 cells, 1 μM, 4 hr pre-treatment before FP-Bio",significantly reduced
same,IC50,NCEH1 [1]; wild-type PC3 cells,6 nM
same,NCEH1 activity by gel-based profiling (FP-Bio labeling),NCEH1 [2],significant and selective inhibition of NCEH1 activity; also recorded: specifically inhibits labeling of NCEH1
